Results taken from patent publication US20240190860A1, “8-CYCLO-SUBSTITUTED QUINAZOLINE DERIVATIVES AS LPA RECEPTOR 2 INHIBITORS” (CHIESI FARMACEUTICI S.p.A., priority 2021, published 2024).

Biological target: T1, human recombinant LPA2 expressed in CHO cells (Homo sapiens, UniProt Q9HBW0)
T1 construct: expressed in transfected cells; host or cells: CHO cells (CHO-hLPA2 cell line)
Assay: FLIPR calcium mobilization assay, LPA2 antagonism in CHO-hLPA2 cells
Format: cell-based
Details: CHO-hLPA2 cells, inhibition of LPA EC80 Ca2+ response, 30 min pre-incubation; read-out: LPA2 IC50
Experimental: The effectiveness of compounds of the present invention as LPA2 antagonist can be determined at the human recombinant LPA2 expressed in CHO cells, using a FLIPR assay in 384 well format.
CHO-hLPA2 cell lines are cultured in a humidified incubator at 5% C02 in DMEM/F-12 (1:1) MIXTURE with 2 mM Glutamax, supplemented with 10% of Foetal Bovine Serum, 1 mM Sodium Pyruvate, 11 mM Hepes and 1× Penicillin/Streptomycin. CHO hLPA2 cells are seeded into black walled clear-bottom 384-well plates (#781091, Greiner Bio-One GmbH) at a density of 7,500 cells per well in 50 μl culture media and grown overnight in a 37° C. humidified CO2-incubator. Serial dilutions (1:3 or 1:4, 11 points CRC) of compounds are performed in 100% DMSO at 200× the final concentration. The compounds are diluted 1:50 prior to the experiment with Assay Buffer (20 mM HEPES, 145 mM NaCl, 5 mM KCl, 5.5 mM glucose, 1 mM MgCl2 and 2 mM CaCl2, pH 7.4 containing 0.01% Pluronic F-127) to obtain a solution corresponding to […] the final concentration in the assay (4×, 2% DMSO). The final concentration of DMSO in the assay will be 0.5% in each well. Medium is removed by aspiration and cells are then incubated with 30 μl of a loading solution containing 5 μM of the cytoplasmic Ca2+ indicator Cal-520 AM in Assay Buffer containing 2.5 mM probenecid for 30 min at 37° C. incubator (cell loading). The loaded cell plates are transferred into the FLIPR instrument and calcium responses are monitored during the on-line addition protocols. For testing of compounds, after the cell loading, 10 μl/well of 4× antagonists' solution was added onto the cells. After 30 min pre-incubation (at 37° C.), 10 μl/well of 5× concentrated LPA EC80 was added and Ca2+ mobilization responses was followed during the on-line addition protocol. Intracellular peak fluorescence values subtracted by baseline fluorescence are exported and analysed to determine IC50 values, respectively. The calcium response is expressed as percentage of the maximal inhibition of the EC80 agonist response.
The raw data (peak height expressed as relative fluorescence units) are normalized and transformed into “percent of inhibition”. Curve fitting and pIC50 (−LogIC50) estimations are carried out using a four-parameter logistic model using XLfit Software.

T1 sequence (Q9HBW0 whole entry): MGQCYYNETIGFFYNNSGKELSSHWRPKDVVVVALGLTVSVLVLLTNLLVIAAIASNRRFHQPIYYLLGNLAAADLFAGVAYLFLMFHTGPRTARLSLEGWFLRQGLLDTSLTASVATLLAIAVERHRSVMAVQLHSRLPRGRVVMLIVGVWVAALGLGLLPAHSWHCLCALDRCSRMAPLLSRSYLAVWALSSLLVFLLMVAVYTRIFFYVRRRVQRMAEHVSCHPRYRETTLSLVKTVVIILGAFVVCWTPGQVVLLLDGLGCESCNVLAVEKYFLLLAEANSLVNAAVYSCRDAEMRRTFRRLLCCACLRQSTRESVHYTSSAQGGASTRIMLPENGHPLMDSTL

IC50	Compound
< 10 nM	COC(=O)Nc1nc(C)c(S(=O)(=O)N2CCN(C[C@H](C)Nc3ncnc4c(-c5cncc(CN6CCCC6)c5)cccc34)CC2)s1 [Example 25, methyl N-[4-methyl-5-({4-[(2S)-2-[(8-{5-[(pyrrolidin-1-yl)methyl]pyridin-3-yl}quinazolin-4-yl)amino]propyl]piperazin-1-yl}sulfonyl)-1,3-thiazol-2-yl]carbamate]
< 10 nM	COC(=O)Nc1nc(C)c(S(=O)(=O)N2CCN(C[C@H](C)Nc3ncnc4c(-c5ccc(N(C)C)nc5)cccc34)CC2)s1 [Example 26, methyl N-[5-({4-[(2S)-2-({8-[6-(dimethylamino)pyridin-3-yl]quinazolin-4-yl}amino)propyl]piperazin-1-yl}sulfonyl)-4-methyl-1,3-thiazol-2-yl]carbamate]
< 10 nM	COC(=O)Nc1nc(C)c(S(=O)(=O)N2CCN(C[C@H](C)Nc3ncnc4c(-c5c(C)n[nH]c5C)cccc34)CC2)s1 [Example 27, methyl N-[5-({4-[(2S)-2-{[8-(3,5-dimethyl-1H-pyrazol-4-yl)quinazolin-4-yl]amino}propyl]piperazin-1-yl}sulfonyl)-4-methyl-1,3-thiazol-2-yl]carbamate]
< 10 nM	COC(=O)Nc1nc(C)c(S(=O)(=O)N2CCN(C[C@H](C)Nc3ncnc4c(-c5ccc(C)nc5)cccc34)CC2)s1 [Example 28, methyl N-[4-methyl-5-({4-[(2S)-2-{[8-(6-methylpyridin-3-yl)quinazolin-4-yl]amino}propyl]piperazin-1-yl}sulfonyl)-1,3-thiazol-2-yl]carbamate]
< 10 nM	COC(=O)Nc1nc(C)c(S(=O)(=O)N2CCN(C[C@H](C)Nc3ncnc4c(-c5ccccn5)cccc34)CC2)s1 [Example 29, methyl N-[4-methyl-5-({4-[(2S)-2-{[8-(pyridin-2-yl)quinazolin-4-yl]amino}propyl]piperazin-1-yl}sulfonyl)-1,3-thiazol-2-yl]carbamate]
< 10 nM	COC(=O)Nc1nc(C)c(S(=O)(=O)N2CCN(C[C@H](C)Nc3ncnc4c(-c5cn(C)nc5C(F)(F)F)cccc34)CC2)s1 [Example 30, methyl N-[4-methyl-5-({4-[(2S)-2-({8-[1-methyl-3-(trifluoromethyl)-1H-pyrazol-4-yl]quinazolin-4-yl}amino)propyl]piperazin-1-yl}sulfonyl)-1,3-thiazol-2-yl]carbamate]
< 10 nM	C[C@@H](CN1CCN(S(=O)(=O)c2ccc(Cl)c(Cl)c2)CC1)Nc1ncnc2c(-c3cccnc3)cccc12 [Example 31, N-[(2S)-1-[4-(3,4-dichlorobenzenesulfonyl)piperazin-1-yl]propan-2-yl]-8-(pyridin-3-yl)quinazolin-4-amine]
< 10 nM	CC(=O)Nc1nc(C)c(S(=O)(=O)N2CCN(C[C@H](C)Nc3ncnc4c(-c5cccnc5)cccc34)CC2)s1 [Example 32, N-[4-methyl-5-({4-[(2S)-2-{[8-(pyridin-3-yl)quinazolin-4-yl]amino}propyl]piperazin-1-yl}sulfonyl)-1,3-thiazol-2-yl]acetamide]
< 10 nM	Cc1cc(C(=O)Nc2nc(C)c(S(=O)(=O)N3CCN(C[C@H](C)Nc4ncnc5c(-c6cccnc6)cccc45)CC3)s2)no1 [Example 33, 5-methyl-N-[4-methyl-5-({4-[(2S)-2-{[8-(pyridin-3-yl)quinazolin-4-yl]amino}propyl]piperazin-1-yl}sulfonyl)-1,3-thiazol-2-yl]-1,2-oxazole-3-carboxamide]
10 to 100 nM	COC(=O)Nc1nc(C)c(S(=O)(=O)N2CCN(C[C@H](C)Nc3ncnc4c(-c5cnc(C)nc5)cccc34)CC2)s1 [Example 34, methyl N-[4-methyl-5-({4-[(2S)-2-{[8-(2-methylpyrimidin-5-yl)quinazolin-4-yl]amino}propyl]piperazin-1-yl}sulfonyl)-1,3-thiazol-2-yl]carbamate]
